The first test has as its system NCI-H358. The test can be described thus: relative viability (nuclei count vs DMSO), 5 days (fraction); higher = more cells survive. The note with it: first compound 0.253 µM. An outline of the steps:
(§1)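 Dosing by pin tool came one day after lung cancer cell lines were seeded in 1536-well plates, using either one drug or a fixed anchor-drug dose plus five library-drug doses (not always all listed) in √10 steps. After 5 days, nuclei were counted on 4× images. Relative viability is treated-well nuclei count divided by vehicle-well nuclei count, and values are medians of duplicate plates.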
Take `Nc1cccc2c1CN(C1CCC(=O)NC1=O)C2=O` (configuration not stated) [Lenalidomide] + COc1cccc2cc(-c3nc([C@H]4CC[C@H](C(=O)O)CC4)n4ncnc(N)c34)[nH]c12 [OSI-027] (partner 0.5 µM): the relative viability is 0.717.

Staying with this test, now noted: first compound 0.8 µM.
As to `Nc1cccc2c1CN(C1CCC(=O)NC1=O)C2=O` (configuration not stated) [Lenalidomide] + Nc1ncn([C@H]2C[C@H](O)[C@@H](CO)O2)c(=O)n1 [Decitabine] (partner 2 µM), the relative viability was determined as 0.228.
As to `Nc1cccc2c1CN(C1CCC(=O)NC1=O)C2=O` (configuration not stated) [Lenalidomide] + N=C(N)NC(=N)NCCc1ccccc1 [Phenformin] (partner 250 µM), the relative viability came out at 0.371.
On the same count and under the same terms, the value for `Nc1cccc2c1CN(C1CCC(=O)NC1=O)C2=O` (configuration not stated) [Lenalidomide] + Nc1nc2[nH]cc(CCc3ccc(C(=O)N[C@@H](CCC(=O)O)C(=O)O)cc3)c2c(=O)[nH]1 [Pemetrexed] (partner 0.2 µM) was 0.197.
With `Nc1cccc2c1CN(C1CCC(=O)NC1=O)C2=O` (configuration not stated) [Lenalidomide] + CC(=O)c1c(C)c2cnc(Nc3ccc(N4CCNCC4)cn3)nc2n(C2CCCC2)c1=O [Palbociclib] (partner 0.5 µM), the relative viability came to 0.139.
In turn, `Nc1cccc2c1CN(C1CCC(=O)NC1=O)C2=O` (configuration not stated) [Lenalidomide] + O=C(CCCCCCC(=O)Nc1ccccc1)NO [Vorinostat] (partner 1 µM) registered a relative viability of 0.748.
Same read-out and setting: the value for `Nc1cccc2c1CN(C1CCC(=O)NC1=O)C2=O` (configuration not stated) [Lenalidomide] + COc1cccc2cc(-c3nc([C@H]4CC[C@H](C(=O)O)CC4)n4ncnc(N)c34)[nH]c12 [OSI-027] (partner 0.5 µM) was 0.815.

The test is the same for the next values; noted with them: first compound 2.53 µM.
In turn, `Nc1cccc2c1CN(C1CCC(=O)NC1=O)C2=O` (configuration not stated) [Lenalidomide] + Nc1ncn([C@H]2C[C@H](O)[C@@H](CO)O2)c(=O)n1 [Decitabine] (partner 2 µM) came in with a relative viability of 0.232.
Still for that read-out and setting: the value for `Nc1cccc2c1CN(C1CCC(=O)NC1=O)C2=O` (configuration not stated) [Lenalidomide] + N=C(N)NC(=N)NCCc1ccccc1 [Phenformin] (partner 250 µM) was 0.405.
On the same count and under the same terms, in the case of `Nc1cccc2c1CN(C1CCC(=O)NC1=O)C2=O` (configuration not stated) [Lenalidomide] + Nc1nc2[nH]cc(CCc3ccc(C(=O)N[C@@H](CCC(=O)O)C(=O)O)cc3)c2c(=O)[nH]1 [Pemetrexed] (partner 0.2 µM) it was 0.182.
In the case of `Nc1cccc2c1CN(C1CCC(=O)NC1=O)C2=O` (configuration not stated) [Lenalidomide] + CC(=O)c1c(C)c2cnc(Nc3ccc(N4CCNCC4)cn3)nc2n(C2CCCC2)c1=O [Palbociclib] (partner 0.5 µM), the relative viability was 0.142.
As for `Nc1cccc2c1CN(C1CCC(=O)NC1=O)C2=O` (configuration not stated) [Lenalidomide] + O=C(CCCCCCC(=O)Nc1ccccc1)NO [Vorinostat] (partner 1 µM), the relative viability was 0.745.
Compound `Nc1cccc2c1CN(C1CCC(=O)NC1=O)C2=O` (configuration not stated) [Lenalidomide] + COc1cccc2cc(-c3nc([C@H]4CC[C@H](C(=O)O)CC4)n4ncnc(N)c34)[nH]c12 [OSI-027] (partner 0.5 µM) yielded a relative viability of 0.925.

The test is the same for the next values; noted with them: first compound 8 µM.
Compound `Nc1cccc2c1CN(C1CCC(=O)NC1=O)C2=O` (configuration not stated) [Lenalidomide] + Nc1ncn([C@H]2C[C@H](O)[C@@H](CO)O2)c(=O)n1 [Decitabine] (partner 2 µM) displayed a relative viability of 0.22.
`Nc1cccc2c1CN(C1CCC(=O)NC1=O)C2=O` (configuration not stated) [Lenalidomide] + N=C(N)NC(=N)NCCc1ccccc1 [Phenformin] (partner 250 µM) returned a relative viability of 0.359.
As to `Nc1cccc2c1CN(C1CCC(=O)NC1=O)C2=O` (configuration not stated) [Lenalidomide] + Nc1nc2[nH]cc(CCc3ccc(C(=O)N[C@@H](CCC(=O)O)C(=O)O)cc3)c2c(=O)[nH]1 [Pemetrexed] (partner 0.2 µM), the relative viability stood at 0.179.
Compound `Nc1cccc2c1CN(C1CCC(=O)NC1=O)C2=O` (configuration not stated) [Lenalidomide] + CC(=O)c1c(C)c2cnc(Nc3ccc(N4CCNCC4)cn3)nc2n(C2CCCC2)c1=O [Palbociclib] (partner 0.5 µM) yielded a relative viability of 0.132.
`Nc1cccc2c1CN(C1CCC(=O)NC1=O)C2=O` (configuration not stated) [Lenalidomide] + O=C(CCCCCCC(=O)Nc1ccccc1)NO [Vorinostat] (partner 1 µM): the relative viability is 0.72.
In the case of `Nc1cccc2c1CN(C1CCC(=O)NC1=O)C2=O` (configuration not stated) [Lenalidomide] + COc1cccc2cc(-c3nc([C@H]4CC[C@H](C(=O)O)CC4)n4ncnc(N)c34)[nH]c12 [OSI-027] (partner 0.5 µM), the relative viability stood at 0.855.

For another test, the system named is NCI-H460. The test is described as above. The note with it: first compound 0.253 µM. An outline of the steps: as §1
Consider `Nc1cccc2c1CN(C1CCC(=O)NC1=O)C2=O` (configuration not stated) [Lenalidomide] + Nc1ncn([C@H]2C[C@H](O)[C@@H](CO)O2)c(=O)n1 [Decitabine] (partner 2 µM), for which the relative viability worked out at 0.402.
The same measure, in the same setting: the value for `Nc1cccc2c1CN(C1CCC(=O)NC1=O)C2=O` (configuration not stated) [Lenalidomide] + N=C(N)NC(=N)NCCc1ccccc1 [Phenformin] (partner 250 µM) was 0.462; that for `Nc1cccc2c1CN(C1CCC(=O)NC1=O)C2=O` (configuration not stated) [Lenalidomide] + Nc1nc2[nH]cc(CCc3ccc(C(=O)N[C@@H](CCC(=O)O)C(=O)O)cc3)c2c(=O)[nH]1 [Pemetrexed] (partner 0.2 µM) was 0.0811; that for `Nc1cccc2c1CN(C1CCC(=O)NC1=O)C2=O` (configuration not stated) [Lenalidomide] + CC(=O)c1c(C)c2cnc(Nc3ccc(N4CCNCC4)cn3)nc2n(C2CCCC2)c1=O [Palbociclib] (partner 0.5 µM) was 0.179.
`Nc1cccc2c1CN(C1CCC(=O)NC1=O)C2=O` (configuration not stated) [Lenalidomide] + O=C(CCCCCCC(=O)Nc1ccccc1)NO [Vorinostat] (partner 1 µM) gave a relative viability of 0.815.
Same read-out and setting: the value for `Nc1cccc2c1CN(C1CCC(=O)NC1=O)C2=O` (configuration not stated) [Lenalidomide] + COc1cccc2cc(-c3nc([C@H]4CC[C@H](C(=O)O)CC4)n4ncnc(N)c34)[nH]c12 [OSI-027] (partner 0.5 µM) was 0.643.

The same test, now with this note: first compound 0.8 µM.
For the compound `Nc1cccc2c1CN(C1CCC(=O)NC1=O)C2=O` (configuration not stated) [Lenalidomide] + Nc1ncn([C@H]2C[C@H](O)[C@@H](CO)O2)c(=O)n1 [Decitabine] (partner 2 µM), the relative viability came out at 0.476.
Compound `Nc1cccc2c1CN(C1CCC(=O)NC1=O)C2=O` (configuration not stated) [Lenalidomide] + N=C(N)NC(=N)NCCc1ccccc1 [Phenformin] (partner 250 µM) gave a relative viability of 0.522.
In the case of `Nc1cccc2c1CN(C1CCC(=O)NC1=O)C2=O` (configuration not stated) [Lenalidomide] + Nc1nc2[nH]cc(CCc3ccc(C(=O)N[C@@H](CCC(=O)O)C(=O)O)cc3)c2c(=O)[nH]1 [Pemetrexed] (partner 0.2 µM), the relative viability was 0.068.
For the compound `Nc1cccc2c1CN(C1CCC(=O)NC1=O)C2=O` (configuration not stated) [Lenalidomide] + CC(=O)c1c(C)c2cnc(Nc3ccc(N4CCNCC4)cn3)nc2n(C2CCCC2)c1=O [Palbociclib] (partner 0.5 µM), the relative viability turned out to be 0.0987.
`Nc1cccc2c1CN(C1CCC(=O)NC1=O)C2=O` (configuration not stated) [Lenalidomide] + O=C(CCCCCCC(=O)Nc1ccccc1)NO [Vorinostat] (partner 1 µM) showed a relative viability of 0.715.
Still for that read-out and setting: the value for `Nc1cccc2c1CN(C1CCC(=O)NC1=O)C2=O` (configuration not stated) [Lenalidomide] + COc1cccc2cc(-c3nc([C@H]4CC[C@H](C(=O)O)CC4)n4ncnc(N)c34)[nH]c12 [OSI-027] (partner 0.5 µM) was 0.679.

The same test, now with this note: first compound 2.53 µM.
The compound `Nc1cccc2c1CN(C1CCC(=O)NC1=O)C2=O` (configuration not stated) [Lenalidomide] + Nc1ncn([C@H]2C[C@H](O)[C@@H](CO)O2)c(=O)n1 [Decitabine] (partner 2 µM) registered a relative viability of 0.64.
